Test results: patent US20250320213A1, “Nitrogen-Containing Heterocyclic Compounds” (Pfizer Inc., priority 2024, published 2025)

Legend:
[1] = test system: CCL17 secretion in peripheral human whole blood; assay: Human Whole Blood (HWB) CCL17 TR-FRET Assay (IL-13 stimulated CCL17 secretion); type: cell-based; conditions: human whole blood, IL-13 stimulated
Method in brief: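 Measured here: CCL17 in serum by TR-FRET (665/615 nm) after overnight (16 h) room-temperature detection. The blood, heparinized and compound-treated for 2 h, received IL-13 at 10 ng/mL final and was cultured 48 h at 37 °C.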

STAT6 = target: T1, STAT6 (Homo sapiens, UniProt P42226); assay: STAT6 Reporter Luciferase Assay (IL-13 stimulated HaCaT keratinocyte NanoLuc reporter cells); type: cell-based; conditions: IL-13 stimulated HaCaT STAT6 NanoLuc reporter cells; read-out: Reporter EC50
T1 construct: stably transfected HaCaT keratinocyte cell line, which expresses NanoLuc luciferase reporter gene under the transcriptional control of the STAT6 responsive promoter; endogenous in cells; host or cells: HaCaT keratinocyte reporter cell line (stably transfected with a NanoLuc reporter)
T1 sequence (P42226 1-847): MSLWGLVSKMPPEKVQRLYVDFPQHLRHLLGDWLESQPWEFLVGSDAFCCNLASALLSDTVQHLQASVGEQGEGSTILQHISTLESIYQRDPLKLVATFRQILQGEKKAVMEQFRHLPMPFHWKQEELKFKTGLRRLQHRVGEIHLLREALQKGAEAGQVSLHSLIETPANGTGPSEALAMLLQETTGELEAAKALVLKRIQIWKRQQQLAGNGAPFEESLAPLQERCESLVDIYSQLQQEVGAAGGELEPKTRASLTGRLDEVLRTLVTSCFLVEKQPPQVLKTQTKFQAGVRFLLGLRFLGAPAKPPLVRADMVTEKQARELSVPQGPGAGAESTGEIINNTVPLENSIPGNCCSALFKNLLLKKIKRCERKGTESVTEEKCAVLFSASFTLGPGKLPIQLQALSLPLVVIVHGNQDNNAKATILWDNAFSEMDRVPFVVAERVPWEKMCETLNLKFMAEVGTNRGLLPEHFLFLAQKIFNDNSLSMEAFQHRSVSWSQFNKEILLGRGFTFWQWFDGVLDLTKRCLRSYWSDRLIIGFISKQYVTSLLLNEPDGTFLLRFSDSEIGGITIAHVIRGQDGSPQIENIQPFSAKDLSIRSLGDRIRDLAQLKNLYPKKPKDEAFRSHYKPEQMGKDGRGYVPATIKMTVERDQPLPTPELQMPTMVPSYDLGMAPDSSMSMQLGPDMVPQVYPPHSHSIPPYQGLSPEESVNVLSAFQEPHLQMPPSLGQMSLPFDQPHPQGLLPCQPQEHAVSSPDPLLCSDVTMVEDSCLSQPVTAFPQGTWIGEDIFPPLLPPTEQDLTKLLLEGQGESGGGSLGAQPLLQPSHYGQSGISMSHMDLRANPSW
Method in brief: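 HaCaT IL-13Ra2-promoter NanoLuc reporter; cpd 2 h 37 °C in DMEM/2% HI FBS; IL-13 0.12 nM final, 4 h; Nano-Glo luminescence.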

IC50 ([1]; 48 hours) [nM]	EC50 (STAT6) [nM]	IC50 ([1]; Homo sapiens, 48 h) [nM]	Compound
212	17	–	CC1CN(c2ccc(C(=O)N(C)C)cn2)Cc2c1nn1c2C(=O)N(Cc2ccc(NC(=O)N(C)C)cc2)CC1 (single isomer, unassigned) [Example 281, rel-(R or S)-6-(9-(4-(3,3-dimethylureido)benzyl)-4-methyl-10-oxo-3,4,7,8,9,10-hexahydropyrido[4′,3′:3,4]pyrazolo[1,5-alpyrazin-2(1H)-yl)-N,N-dimethylnicotinamide]
–	1	7	C[C@H]1CN(c2ccc(C(=O)N(C)C)cn2)Cc2c(C(=O)NCc3ccc(NC(=O)N(C)C)cc3)nn(C3(C)CC3)c21 (single isomer, unassigned) [Example 285]
–	1	13	C[C@H]1CN(c2ccc(C(=O)N(C)C)cn2)Cc2c(C(=O)NCc3ccc(NC(=O)N(C)C)cc3)nn(CC3CC3)c21 (single isomer, unassigned) [Example 287]
334	22	–	CCn1nc(C(=O)NCc2ccc(NC(=O)N(C)C)cc2)c2c1C(C(F)(F)F)CN(c1ccc(C(=O)N(C)C)cn1)C2 (single isomer, unassigned) [Example 303, rel-(R or S)-5-(5-(dimethylcarbamoyl)pyridin-2-yl)-N-(4-(3,3-dimethylureido)benzyl)-1-ethyl-7-(trifluoromethyl)-4,5,6,7-tetrahydro-1H-pyrazolo[4,3-c]pyridine-3-carboxamide]
4	0.3	–	CCn1nc(C(=O)NCc2ccc(NC(=O)N(C)C)cc2)c2c1C(C(F)(F)F)CN(c1ccc(C(=O)N(C)C)cn1)C2 (single isomer, unassigned) [Example 304, rel-(R or S)-5-(5-(dimethylcarbamoyl)pyridin-2-yl)-N-(4-(3,3-dimethylureido)benzyl)-1-ethyl-7-(trifluoromethyl)-4,5,6,7-tetrahydro-1H-pyrazolo[4,3-c]pyridine-3-carboxamide]
–	0.5	7	C[C@H]1CN(c2ccc(C(=O)N(C)C)cn2)Cc2c(C(=O)NCc3ccc(NC(=O)N(C)C)cc3)nn(CC(F)(F)F)c21 (single isomer, unassigned) [Example 307]
115	8	–	CCC1CN(c2ccc(C(=O)N(C)C)cn2)Cc2c(C(=O)NCc3ccc(NC(=O)N(C)C)cc3)nn(C(C)C)c21 (single isomer, unassigned) [Example 310, rel-(R or S)-5-(5-(dimethylcarbamoyl)pyridin-2-yl)-N-(4-(3,3-dimethylureido)benzyl)-7-ethyl-1-isopropyl-4,5,6,7-tetrahydro-1H-pyrazolo[4,3-c]pyridine-3-carboxamide]
11	1	–	CCC1CN(c2ccc(C(=O)N(C)C)cn2)Cc2c(C(=O)NCc3ccc(NC(=O)N(C)C)cc3)nn(C(C)C)c21 (single isomer, unassigned) [Example 311, rel-(R or S)-5-(5-(dimethylcarbamoyl)pyridin-2-yl)-N-(4-(3,3-dimethylureido)benzyl)-7-ethyl-1-isopropyl-4,5,6,7-tetrahydro-1H-pyrazolo[4,3-c]pyridine-3-carboxamide]
163	10	–	CCC1CN(c2ccc(C(=O)N(C)C)cn2)Cc2c(C(=O)NCc3ccc(NC(=O)N(C)C)cc3)nn(CC)c21 (single isomer, unassigned) [Example 312, rel-(R or S)-5-(5-(dimethylcarbamoyl)pyridin-2-yl)-N-(4-(3,3-dimethylureido)benzyl)-1,7-diethyl-4,5,6,7-tetrahydro-1H-pyrazolo[4,3-c]pyridine-3-carboxamide]
15	1	–	CCC1CN(c2ccc(C(=O)N(C)C)cn2)Cc2c(C(=O)NCc3ccc(NC(=O)N(C)C)cc3)nn(CC)c21 (single isomer, unassigned) [Example 313, rel-(R or S)-5-(5-(dimethylcarbamoyl)pyridin-2-yl)-N-(4-(3,3-dimethylureido)benzyl)-1,7-diethyl-4,5,6,7-tetrahydro-1H-pyrazolo[4,3-c]pyridine-3-carboxamide]
4	0.4	–	CCC(C)n1nc(C(=O)NCc2ccc(NC(=O)N(C)C)cc2)c2c1[C@@H](C)CN(c1ccc(C(=O)N(C)C)cn1)C2 (single isomer, unassigned) [Example 318, (S)-1-((R*)-sec-butyl)-5-(5-(dimethylcarbamoyl)pyridin-2-yl)-N-(4-(3,3-dimethylureido)benzyl)-7-methyl-4,5,6,7-tetrahydro-1H-pyrazolo[4,3-c]pyridine-3-carboxamide]
13	1	–	CCC(C)n1nc(C(=O)NCc2ccc(NC(=O)N(C)C)cc2)c2c1[C@@H](C)CN(c1ccc(C(=O)N(C)C)cn1)C2 (single isomer, unassigned) [Example 319, (S)-1-((R*)-sec-butyl)-5-(5-(dimethylcarbamoyl)pyridin-2-yl)-N-(4-(3,3-dimethylureido)benzyl)-7-methyl-4,5,6,7-tetrahydro-1H-pyrazolo[4,3-c]pyridine-3-carboxamide]
–	1	5	CC(C)n1nc(C(=O)NCc2ccc(-c3ncc[nH]3)cc2)c2c1[C@@H](C)CN(c1ncc(C(=O)N(C)C)cn1)C2 (single isomer, unassigned) [Example 335]
–	14	41	CCC1CN(c2ccc(C(=O)N(C)C)cn2)Cc2c(C(=O)NCc3ccc(NC(=O)N(C)C)cc3)nc(C)n21 (single isomer, unassigned) [Example 336, rel-(R or S)-7-(5-(dimethylcarbamoyl)pyridin-2-yl)-N-(4-(3,3-dimethylureido)benzyl)-5-ethyl-3-methyl-5,6,7,8-tetrahydroimidazo[1,5-a]pyrazine-1-carboxamide]
127	83	–	CC(CC#N)n1nc(C(=O)NCc2ccc(NC(=O)N(C)C)cc2)c2c1CCN(c1ccc(C(=O)N(C)C)cn1)C2 (single isomer, unassigned) [Example 347, rel-(R or S)-1-(1-cyanopropan-2-yl)-5-(5-(dimethylcarbamoyl)pyridin-2-yl)-N-(4-(3,3-dimethylureido)benzyl)-4,5,6,7-tetrahydro-1H-pyrazolo[4,3-c]pyridine-3-carboxamide]
36	43	–	CC(CC#N)n1nc(C(=O)NCc2ccc(NC(=O)N(C)C)cc2)c2c1CCN(c1ccc(C(=O)N(C)C)cn1)C2 (single isomer, unassigned) [Example 348, rel-(R or S)-1-(1-cyanopropan-2-yl)-5-(5-(dimethylcarbamoyl)pyridin-2-yl)-N-(4-(3,3-dimethylureido)benzyl)-4,5,6,7-tetrahydro-1H-pyrazolo[4,3-c]pyridine-3-carboxamide]
–	0.3	3	CCn1nc(C(=O)NCc2ccc(NC(=O)N(C)C)cc2)c2c1[C@@H](C)[C@H](C)N(c1ccc(C(=O)N(C)C)cn1)C2 (single isomer, unassigned) [Example 352]
–	4	47	CCn1nc(C(=O)NCc2ccc(NC(=O)N(C)C)cc2)c2c1[C@H](C)[C@@H](C)N(c1ccc(C(=O)N(C)C)cn1)C2 (single isomer, unassigned) [Example 353]
–	4	24	CC(C)n1nc(C(=O)NCc2ccc(NC(=O)N(C)C)cc2)c2c1[C@H](C)[C@@H](C)N(c1ccc(C(=O)N(C)C)cn1)C2 (single isomer, unassigned) [Example 354]
–	0.2	3	CC(C)n1nc(C(=O)NCc2ccc(NC(=O)N(C)C)cc2)c2c1[C@@H](C)[C@H](C)N(c1ccc(C(=O)N(C)C)cn1)C2 (single isomer, unassigned) [Example 355]
3310	246	–	CNC(=O)c1ccc(CNC(=O)c2nn(C(C)C)c3c2CN(c2ccc(C(=O)N(C)C)cn2)CC3C(F)(F)F)cc1 (single isomer, unassigned) [Example 356, rel-(R or S)-5-(5-(dimethylcarbamoyl)pyridin-2-yl)-1-isopropyl-N-(4-(methylcarbamoyl)benzyl)-7-(trifluoromethyl)-4,5,6,7-tetrahydro-1H-pyrazolo[4,3-c]pyridine-3-carboxamide]
